# Experimental data from ChEMBL document CHEMBL1134090, “Esters of 2-(1-hydroxyalkyl)-1,4-dihydroxy-9,10-anthraquinones with melphalan as multifunctional anticancer agents” (Bioorg Med Chem Lett, 2001).
# What was measured:
# [1] = Cytotoxicity against L-1210 cells; format: cell-based, L1210; conditions: mouse, read-out: ED50 (the source's name)
# Mus musculus = organism: Mus musculus; test: Ratio of number of mice that survived after 50 days among eight mice tested; format: functional
# [2] = Antitumor activity against S-180 cells after i.p. administration in mice up to 7 days at a dose of 16 umol/kg; format: functional, Mus musculus
SMILES,CC50 [1] [µg/mL],Survival ratio (Mus musculus),T/C [2] [%]
CCCCCCC(OC(=O)C(Cc1ccc(N(CCCl)CCCl)cc1)NC=O)c1cc(O)c2c(c1O)C(=O)c1ccccc1C2=O (stereo not drawn),4.5,0,210
CCCCC(O)c1cc(O)c2c(c1O)C(=O)c1ccccc1C2=O (stereo not drawn),23.7,–,110
CCCCCC(O)c1cc(O)c2c(c1O)C(=O)c1ccccc1C2=O (stereo not drawn),58,–,108
N[C@@H](Cc1ccc(N(CCCl)CCCl)cc1)C(=O)O [MELPHALAN],0.89,3,225
CCC(OC(=O)C(Cc1ccc(N(CCCl)CCCl)cc1)NC=O)c1cc(O)c2c(c1O)C(=O)c1ccccc1C2=O (stereo not drawn),0.2,3,245
CC(OC(=O)C(Cc1ccc(N(CCCl)CCCl)cc1)NC=O)c1cc(O)c2c(c1O)C(=O)c1ccccc1C2=O (stereo not drawn),0.12,6,272
CCC(O)c1cc(O)c2c(c1O)C(=O)c1ccccc1C2=O (stereo not drawn),7.2,–,135
CCCC(OC(=O)C(Cc1ccc(N(CCCl)CCCl)cc1)NC=O)c1cc(O)c2c(c1O)C(=O)c1ccccc1C2=O (stereo not drawn),0.97,3,240
CCCCCCC(O)c1cc(O)c2c(c1O)C(=O)c1ccccc1C2=O (stereo not drawn),60,–,115
CCCCCC(OC(=O)C(Cc1ccc(N(CCCl)CCCl)cc1)NC=O)c1cc(O)c2c(c1O)C(=O)c1ccccc1C2=O (stereo not drawn),3.1,1,230
CC(O)c1cc(O)c2c(c1O)C(=O)c1ccccc1C2=O (stereo not drawn),1.9,–,139
CCCCCCCC(OC(=O)C(Cc1ccc(N(CCCl)CCCl)cc1)NC=O)c1cc(O)c2c(c1O)C(=O)c1ccccc1C2=O (stereo not drawn),5.9,0,205
CCCC(O)c1cc(O)c2c(c1O)C(=O)c1ccccc1C2=O (stereo not drawn),10.2,–,125
CCCCCCCC(O)c1cc(O)c2c(c1O)C(=O)c1ccccc1C2=O (stereo not drawn),80,–,103
O=C1c2ccccc2C(=O)c2c(O)c(CO)cc(O)c21,15,–,125
O=CNC(Cc1ccc(N(CCCl)CCCl)cc1)C(=O)OCc1cc(O)c2c(c1O)C(=O)c1ccccc1C2=O (stereo not drawn),0.086,3,265
CCCCC(OC(=O)C(Cc1ccc(N(CCCl)CCCl)cc1)NC=O)c1cc(O)c2c(c1O)C(=O)c1ccccc1C2=O (stereo not drawn),0.4,2,230
